Patent US8524290B2, “Non-occluding nasal moisturizer and methods of use” (priority 2010, dated 2013)

Test system: nasal epithelium
Experiment: Transepidermal water loss of the nasal epithelium (TEWAMETER 300 evaporation meter)
Format: in vivo
Conditions: single nostril, after application, compared with basal state
Method: A single nostril is administered the test composition of Example 1 or a comparator solution, and transepidermal water loss is measured using an evaporation meter ([…] 300; Courage+Khazaka electronic GmbH, Germany) using the original probe. Subjects are positioned in a seated posture and hold their breath during measurements. Basal measurements are performed prior to application of a test composition.

O [water]
transepidermal water loss: Little change
